Source: ChEMBL document CHEMBL1201862, “PubChem BioAssay data set” (2004)
Active and inactive are the calls of the source.

Tests used:
cells [1] = experiment: cells
[2] = molecular target: T1, Oxysterols receptor LXR-beta (Homo sapiens, UniProt P55055); assay type: functional, cell-based;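 note: Cell-based luminescence dose-response assay of agonist activity at LXR, run as a confirmatory counterscreen to a daf-12 agonist screen; agonist potency from rising luciferase signal of a Gal4-LXR reporter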
T1 sequence (P55055 whole entry): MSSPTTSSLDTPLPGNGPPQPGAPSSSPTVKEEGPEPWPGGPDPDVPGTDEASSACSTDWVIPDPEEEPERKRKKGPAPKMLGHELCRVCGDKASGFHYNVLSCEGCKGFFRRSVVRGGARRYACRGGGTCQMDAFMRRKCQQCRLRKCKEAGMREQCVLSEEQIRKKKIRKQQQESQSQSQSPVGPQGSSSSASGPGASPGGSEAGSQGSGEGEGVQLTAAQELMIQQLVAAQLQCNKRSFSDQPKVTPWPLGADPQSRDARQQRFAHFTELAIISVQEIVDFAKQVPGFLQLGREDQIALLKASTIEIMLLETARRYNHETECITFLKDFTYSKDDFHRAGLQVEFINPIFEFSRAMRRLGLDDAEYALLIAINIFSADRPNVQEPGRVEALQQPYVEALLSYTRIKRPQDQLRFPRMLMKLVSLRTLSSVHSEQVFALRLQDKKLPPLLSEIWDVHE

[3] = cytotoxicity in MIN6 insulinoma cells, dose response, cytotoxicity control, cell-based, mouse insulinoma (AID 2122); assay type: functional;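 note: confirmatory high-throughput counterscreen run to flag cytotoxic compounds; mouse MIN-6 beta cells carrying an insulin promoter eGFP reporter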
HEK293 [4] = experiment: NOD2 signaling inhibitors in MDP-stimulated cells, cell-based, uHTS, luminescence (AID 2001); assay type: functional; details: Homo sapiens
[5] = Shn3 3'UTR reporter inhibitors, dose response, cell-based, Clone20 osteoblasts, firefly luciferase, cherry-picked (AID 624132); assay type: functional;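 note: firefly luciferase luminescence from reporter carrying the Shn3 3'UTR in osteoblasts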
HEK293 [6] = experiment: cells; assay type: functional, cell-based; details: Homo sapiens
[7] = insulin promoter down-regulators in MIN6 cells, imaging, high-content screening, mouse beta cells (AID 1628); assay type: functional
INS1 = experiment: beta cell apoptosis inhibitors, cytokine rescue, dose response, luminescence, retest (AID 449756); assay type: functional, cell-based; details: Rattus norvegicus;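 note: cell death triggered by IL-1 beta plus TNF-alpha plus IFN-gamma mixture; protective hits raise ATP signal compared with cytokine alone wells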
[8] = control 3'UTR Renilla luciferase suppression, dose response, counter-screen for Shn3 inhibitor project, cell-based, Clone20-Shn3RL, cherry-picked (AID 624133); assay type: functional
[9] = reduction of Shn3 3'UTR firefly luciferase signal, dose response, Schnurri-3 inhibitor project, cell-based, Clone20 osteoblasts, cherry-pick, set 2 (AID 720490); assay type: functional;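 note: actives lower the luminescence signal as inhibitors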
HEK293 [10] = experiment: cells; assay type: functional, cell-based; details: Homo sapiens; remark: listed apart in the source
[11] = HepG2 cell cytotoxicity, dose response, cytotoxicity control for Shn3 inhibitor project, CellTiter-Glo, cherry-picked (AID 624134); assay type: functional, cell-based
HEK293 [12] = experiment: NOD1 signaling inhibitors, primary screen, cell-based, luminescence, uHTS (AID 1578); assay type: functional; details: Homo sapiens
[13] = molecular target: NAD-dependent protein deacylase sirtuin-5, mitochondrial (Homo sapiens, UniProt Q9NXA8); experiment: SIRT5 desuccinylase inhibitors, dose response, biochemical, fluorescence imaging, cherry-pick, set 5 (AID 720591);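 note: desuccinylation of succinyl peptide AMC substrate read as fluorescence after trypsin release; potency of inhibitors that lower fluorescence and may act on trypsin instead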
Sequence of NAD-dependent protein deacylase sirtuin-5, mitochondrial (Q9NXA8 whole entry): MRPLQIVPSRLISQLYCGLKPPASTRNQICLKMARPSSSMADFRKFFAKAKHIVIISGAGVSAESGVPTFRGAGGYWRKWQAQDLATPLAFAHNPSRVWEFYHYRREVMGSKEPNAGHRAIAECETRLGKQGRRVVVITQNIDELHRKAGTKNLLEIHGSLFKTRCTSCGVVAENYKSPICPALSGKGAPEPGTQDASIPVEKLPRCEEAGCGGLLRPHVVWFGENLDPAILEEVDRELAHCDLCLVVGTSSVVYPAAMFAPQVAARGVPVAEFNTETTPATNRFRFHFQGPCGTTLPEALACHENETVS

[14] = HEK293 cell cytotoxicity, dose response, cytotoxicity control, cherry-picks, set 5 (AID 1053117); assay type: functional, cell-based
[15] = inhibitors of fibronectin matrix deposition, dose response, AH1F cells, Alexa488-FN fluorescence, cherry-picks (AID 1035475); assay type: functional, cell-based
Mu-type opioid receptor = Mu-type opioid receptor (Homo sapiens, UniProt P35372); experiment: Late-stage results from the probe development effort to identify antagonists of OPRK1: luminescence-based cell-based dose response OPRM1 counterscreen, Set 2.; assay type: functional
Sequence of Mu-type opioid receptor (P35372 whole entry): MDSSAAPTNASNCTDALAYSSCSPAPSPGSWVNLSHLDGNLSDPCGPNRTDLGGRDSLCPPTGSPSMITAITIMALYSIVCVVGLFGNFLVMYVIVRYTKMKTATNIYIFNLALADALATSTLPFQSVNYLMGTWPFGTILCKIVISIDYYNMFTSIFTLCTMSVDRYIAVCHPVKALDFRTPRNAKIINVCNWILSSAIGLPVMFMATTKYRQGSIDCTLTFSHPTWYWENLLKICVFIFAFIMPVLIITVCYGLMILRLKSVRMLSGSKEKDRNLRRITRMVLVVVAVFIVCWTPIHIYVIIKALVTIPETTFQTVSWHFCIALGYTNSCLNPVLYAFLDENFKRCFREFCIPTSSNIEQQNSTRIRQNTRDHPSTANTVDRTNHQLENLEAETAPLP

[16] = molecular target: Sphingosine 1-phosphate receptor 1 (Homo sapiens, UniProt P21453); experiment: Late-stage counterscreen for antagonists of kappa opioid receptor 1 (OPRK1): fluorescence-based cell-based dose response assay to identify antagonists of Sphingosine 1-Phosphate Receptor 1 (S1P1).; assay type: functional
Sequence of Sphingosine 1-phosphate receptor 1 (P21453 whole entry): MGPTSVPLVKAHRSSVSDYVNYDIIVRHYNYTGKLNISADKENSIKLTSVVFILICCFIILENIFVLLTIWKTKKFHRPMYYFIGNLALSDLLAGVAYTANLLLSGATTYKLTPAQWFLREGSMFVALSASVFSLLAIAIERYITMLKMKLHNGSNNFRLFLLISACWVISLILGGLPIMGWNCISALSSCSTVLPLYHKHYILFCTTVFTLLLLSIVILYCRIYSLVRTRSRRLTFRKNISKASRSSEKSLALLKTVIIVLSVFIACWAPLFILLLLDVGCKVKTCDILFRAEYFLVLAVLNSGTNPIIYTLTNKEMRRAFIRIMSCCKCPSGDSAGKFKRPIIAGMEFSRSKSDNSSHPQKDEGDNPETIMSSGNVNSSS

[17] = molecular target: Kappa-type opioid receptor (Homo sapiens, UniProt P41145); experiment: Late-stage fluorescence-based cell-based dose response assay for antagonists of kappa opioid receptor 1 (OPRK1).; assay type: functional
Sequence of Kappa-type opioid receptor (P41145 whole entry): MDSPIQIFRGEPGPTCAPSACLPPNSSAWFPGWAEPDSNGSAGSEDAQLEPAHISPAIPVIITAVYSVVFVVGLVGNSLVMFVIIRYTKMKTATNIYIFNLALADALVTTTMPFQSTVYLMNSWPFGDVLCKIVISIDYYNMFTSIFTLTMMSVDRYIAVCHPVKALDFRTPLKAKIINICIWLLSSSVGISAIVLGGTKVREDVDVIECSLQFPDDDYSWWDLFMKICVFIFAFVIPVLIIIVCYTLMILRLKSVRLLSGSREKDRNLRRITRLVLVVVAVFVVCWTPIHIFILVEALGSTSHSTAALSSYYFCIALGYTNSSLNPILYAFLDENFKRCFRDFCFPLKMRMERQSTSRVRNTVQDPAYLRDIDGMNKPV

[18] = molecular target: Delta-type opioid receptor (Homo sapiens, UniProt P41143); experiment: Late-stage results from the probe development effort to identify antagonists of OPRK1: fluorescence-based cell-based dose response OPRD1 counterscreen, Set 2.; assay type: functional
Sequence of Delta-type opioid receptor (P41143 whole entry): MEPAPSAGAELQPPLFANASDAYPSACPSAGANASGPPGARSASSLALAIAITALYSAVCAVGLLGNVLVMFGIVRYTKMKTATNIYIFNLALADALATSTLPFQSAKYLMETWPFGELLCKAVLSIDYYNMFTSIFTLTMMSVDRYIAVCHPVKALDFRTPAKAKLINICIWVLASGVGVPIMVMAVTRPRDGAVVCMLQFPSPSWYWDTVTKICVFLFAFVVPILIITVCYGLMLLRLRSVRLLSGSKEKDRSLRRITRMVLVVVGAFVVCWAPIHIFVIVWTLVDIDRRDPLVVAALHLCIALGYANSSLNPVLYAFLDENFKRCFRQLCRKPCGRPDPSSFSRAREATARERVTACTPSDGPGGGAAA

cells [19] = details: A549
HeLa = experiment: HeLa cell cytotoxicity, dose response, cytotoxicity control for MITF activator project, CellTiter-Glo luminescence, cherry-pick samples (AID 540259); assay type: functional, cell-based; details: Homo sapiens
cells [20] = details: HEK293
[21] = HEK293 Cytotoxicity Assay Measured in Cell-Based System Using Plate Reader - 7071-01_Inhibitor_Dose_CherryPick_Activity_Set2.; assay type: functional
HEK293 [22] = experiment: HEK293T cell cytotoxicity, dose response, cytotoxicity control, ATP luminescence, cherry-pick samples (AID 687005); assay type: functional, cell-based; details: Homo sapiens;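 note: cells exposed to compound for 48 hours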
[23] = growth suppression of beta-catenin-knockout colon cells, dose response, cell-based, HCT116, human colon tumor (AID 1045); assay type: functional;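 note: HCT116 colon tumor cells with beta catenin knocked out; cells exposed to compound for 60 hours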
[24] = molecular target: Disintegrin and metalloproteinase domain-containing protein 17 (Homo sapiens, UniProt P78536); experiment: ADAM17 protease inhibitors, dose response, counter-screen for ADAM10 exosite inhibitor project, biochemical, quenched FRET substrate (AID 743253)
Sequence of Disintegrin and metalloproteinase domain-containing protein 17 (P78536 whole entry, the tested form may be a part): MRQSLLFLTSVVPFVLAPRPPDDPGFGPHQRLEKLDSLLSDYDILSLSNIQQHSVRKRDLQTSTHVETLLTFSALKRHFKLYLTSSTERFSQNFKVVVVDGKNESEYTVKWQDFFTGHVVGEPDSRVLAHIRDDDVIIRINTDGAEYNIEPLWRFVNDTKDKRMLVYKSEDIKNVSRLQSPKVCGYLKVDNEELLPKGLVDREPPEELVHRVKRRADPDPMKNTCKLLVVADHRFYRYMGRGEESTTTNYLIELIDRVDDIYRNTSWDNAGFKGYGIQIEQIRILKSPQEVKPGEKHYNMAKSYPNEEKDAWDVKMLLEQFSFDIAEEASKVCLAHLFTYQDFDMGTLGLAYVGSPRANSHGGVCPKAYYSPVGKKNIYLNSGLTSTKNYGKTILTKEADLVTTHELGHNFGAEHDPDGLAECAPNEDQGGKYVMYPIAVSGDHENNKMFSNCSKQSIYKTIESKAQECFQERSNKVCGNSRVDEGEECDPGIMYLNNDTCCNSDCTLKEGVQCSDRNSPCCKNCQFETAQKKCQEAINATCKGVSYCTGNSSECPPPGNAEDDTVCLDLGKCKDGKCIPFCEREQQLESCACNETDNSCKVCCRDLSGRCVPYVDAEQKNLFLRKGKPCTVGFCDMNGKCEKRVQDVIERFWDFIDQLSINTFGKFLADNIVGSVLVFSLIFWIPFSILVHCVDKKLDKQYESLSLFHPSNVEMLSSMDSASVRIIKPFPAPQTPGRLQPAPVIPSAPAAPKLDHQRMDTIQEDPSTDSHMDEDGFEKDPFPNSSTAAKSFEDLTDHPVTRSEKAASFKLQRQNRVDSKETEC

[25] = system: Streptococcus sp. 'group A'; experiment: growth inhibition of control SK(-) GAS strain, dose response, counter-screen for streptokinase expression inhibitor project, luminescence, kanamycin, BacTiterGlo, confirmation (AID 1900); assay type: functional, organism-based
Streptokinase A = molecular target: T2, Streptokinase A (Streptococcus pyogenes serotype M1, UniProt P10520); experiment: S. pyogenes streptokinase expression inhibitors, potency, dose response, plasminogen activation absorbance, OD405 (AID 1914); assay type: functional, Streptococcus pyogenes M1 GAS;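 note: secreted streptokinase activity via plasminogen activation per viability signal from cell pellet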
T2 sequence (P10520 whole entry): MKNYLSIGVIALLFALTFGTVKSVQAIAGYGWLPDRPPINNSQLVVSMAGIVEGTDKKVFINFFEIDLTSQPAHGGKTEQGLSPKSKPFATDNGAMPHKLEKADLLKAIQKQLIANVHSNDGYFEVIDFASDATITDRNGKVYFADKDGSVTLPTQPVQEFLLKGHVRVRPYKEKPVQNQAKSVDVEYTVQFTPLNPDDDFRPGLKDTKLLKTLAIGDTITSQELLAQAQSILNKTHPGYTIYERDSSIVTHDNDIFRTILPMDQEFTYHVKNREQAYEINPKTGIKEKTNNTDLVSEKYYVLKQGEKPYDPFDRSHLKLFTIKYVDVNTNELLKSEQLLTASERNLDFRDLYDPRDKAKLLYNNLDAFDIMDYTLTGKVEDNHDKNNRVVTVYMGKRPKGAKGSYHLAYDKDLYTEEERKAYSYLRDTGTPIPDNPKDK

[26] = microbe, parasite or virus in culture; assay type: functional; details: Mycobacterium tuberculosis
[27] = growth suppression of PTEN-null colon cells, dose response, cell-based, HCT116 PTEN knockout (AID 1047); assay type: functional;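 note: HCT116 colon tumor cells with PTEN knocked out; cells exposed to compound for 60 hours before readout; potency for loss of cell viability measured by luminescence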
Streptococcus = experiment: Group A Streptococcus viability loss, dose response, counter-screen for streptokinase expression inhibitor project, luminescence, BacTiterGlo (AID 1915); assay type: functional, organism-based;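 note: potency for reduction of bacterial viability or growth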
[28] = HEK293T cell cytotoxicity, dose response, cytotoxicity control, CellTiter-Glo luminescence, dry powder, set 2 (AID 720595); assay type: functional, cell-based; details: HEK293
[29] = HEK293T cell cytotoxicity, dose response, cytotoxicity control, CellTiter-Glo luminescence, dry powder, set 6 (AID 651949); assay type: functional, cell-based; details: HEK293
BJ [30] = experiment: cells; assay type: functional, cell-based; details: Homo sapiens
[31] = cytotoxicity toward DRD oncogenic fibroblasts, dose response, cell-based, non-viral oncogenic, luminescence (AID 1934); assay type: functional; details: Homo sapiens
BJ [32] = experiment: cytotoxicity toward BJ-TERT fibroblasts, dose response, cell-based, RAS-independent, luminescence (AID 1933); assay type: functional; details: Homo sapiens
[33] = HEK293 cell cytotoxicity, dose response, cytotoxicity control, dry powder samples (AID 720567); assay type: functional, cell-based
BJ [34] = experiment: cytotoxicity toward BJ-TERT-LT-ST fibroblasts, dose response, cell-based, RAS-independent, luminescence (AID 1935); assay type: functional; details: Homo sapiens;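 note: BJ fibroblasts immortalized with TERT plus LT and ST oncogenes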
[35] = IGROV1 ovarian cancer cell cytotoxicity, dose response, PAX8 inhibitor project, plate reader, dry powder samples (AID 743043); assay type: functional, cell-based; details: IGROV-1
[36] = A2780 ovarian cancer cell cytotoxicity, dose response, cytotoxicity control, plate reader, dry powder samples (AID 743046); assay type: functional, cell-based
[37] = cytotoxicity in OVCAR8 ovarian cancer cells, dose response, PAX8 project, cell-based, plate reader, dry powder samples (AID 743197); assay type: functional; details: OVCAR-8
[38] = NIH:OVCAR-3 ovarian cancer cell cytotoxicity, dose response, PAX8 inhibitor project, plate reader, dry powder samples (AID 743044); assay type: functional, cell-based
Paired box protein Pax-8 = Paired box protein Pax-8 (Homo sapiens, UniProt Q06710); experiment: inhibitors of PAX8-driven TPO luciferase reporter, dose response, RMG-I cells, cherry-pick (AID 687027); assay type: functional, cell-based;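 note: luciferase reporter driven by Pax8 target thyroperoxidase promoter measured by SteadyGlo luminescence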
Sequence of Paired box protein Pax-8 (Q06710 whole entry): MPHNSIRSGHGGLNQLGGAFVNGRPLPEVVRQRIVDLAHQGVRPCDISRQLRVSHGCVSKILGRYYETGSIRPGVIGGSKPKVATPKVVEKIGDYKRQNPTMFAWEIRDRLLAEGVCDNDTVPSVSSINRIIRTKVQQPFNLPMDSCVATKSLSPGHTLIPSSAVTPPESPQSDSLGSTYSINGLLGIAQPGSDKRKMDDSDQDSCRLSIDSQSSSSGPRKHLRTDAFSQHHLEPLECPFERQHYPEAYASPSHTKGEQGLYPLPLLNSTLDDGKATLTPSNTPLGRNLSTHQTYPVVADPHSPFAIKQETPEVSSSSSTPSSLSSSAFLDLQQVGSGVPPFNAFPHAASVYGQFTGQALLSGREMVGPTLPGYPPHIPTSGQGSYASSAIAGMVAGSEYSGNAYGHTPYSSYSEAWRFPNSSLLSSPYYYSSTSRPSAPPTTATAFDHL

[39] = Luminescence-based cell-based high throughput dose response assay to identify activators of the DAF-12 from the parasite S. stercoralis (ssDAF-12).; assay type: functional
[40] = molecular target: T1, Oxysterols receptor LXR-beta; experiment: LXR agonists, Gal4 luciferase reporter, dose response, counter-screen for ssDAF-12 agonist project, cell-based, luminescence, HEK293, S. stercoralis campaign (AID 720737); assay type: functional; details: read-out: IC50 (the source's name)
[41] = molecular target: Glucose-6-phosphate 1-dehydrogenase (Homo sapiens, UniProt P11413); experiment: human G6PD enzyme inhibitors, dose response, selectivity assay for P. falciparum G6PD inhibitor project, biochemical, fluorescence (AID 504792); assay type: functional
Sequence of Glucose-6-phosphate 1-dehydrogenase (P11413 whole entry): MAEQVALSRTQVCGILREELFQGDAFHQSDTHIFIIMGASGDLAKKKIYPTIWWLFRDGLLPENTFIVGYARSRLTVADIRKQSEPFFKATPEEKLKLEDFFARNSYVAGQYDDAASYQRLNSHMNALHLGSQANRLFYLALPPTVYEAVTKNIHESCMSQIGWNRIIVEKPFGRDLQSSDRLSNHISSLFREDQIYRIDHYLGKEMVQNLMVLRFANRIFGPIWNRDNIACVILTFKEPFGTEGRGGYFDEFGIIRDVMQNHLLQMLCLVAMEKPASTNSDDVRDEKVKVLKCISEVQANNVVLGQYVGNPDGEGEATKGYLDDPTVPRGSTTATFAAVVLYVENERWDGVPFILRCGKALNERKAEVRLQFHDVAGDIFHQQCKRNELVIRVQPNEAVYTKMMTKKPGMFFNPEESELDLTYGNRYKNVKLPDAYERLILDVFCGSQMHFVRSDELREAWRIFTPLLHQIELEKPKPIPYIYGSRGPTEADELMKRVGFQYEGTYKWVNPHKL

[42] = molecular target: Potassium channel subfamily K member 3 (Homo sapiens, UniProt O14649); experiment: TASK1 (KCNK3) potassium channel inhibitors, SAR follow-up, CHO cells, FluxOR thallium flux (AID 652212); assay type: functional
Sequence of Potassium channel subfamily K member 3 (Homo sapiens, UniProt O14649) (O14649 whole entry, the tested form may be a part): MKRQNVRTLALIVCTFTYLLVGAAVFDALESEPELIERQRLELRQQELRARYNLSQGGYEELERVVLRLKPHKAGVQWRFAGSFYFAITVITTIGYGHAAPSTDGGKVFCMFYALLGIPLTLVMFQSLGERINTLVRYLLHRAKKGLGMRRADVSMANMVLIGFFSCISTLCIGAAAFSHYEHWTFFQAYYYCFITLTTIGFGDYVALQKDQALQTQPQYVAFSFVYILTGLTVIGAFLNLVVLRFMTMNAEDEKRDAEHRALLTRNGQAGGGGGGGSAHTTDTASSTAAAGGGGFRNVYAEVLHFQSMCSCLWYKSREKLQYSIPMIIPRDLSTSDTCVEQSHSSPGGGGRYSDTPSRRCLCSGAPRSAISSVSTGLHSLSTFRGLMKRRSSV

[43] = molecular target: Potassium channel subfamily K member 3 (Rattus norvegicus, UniProt O54912); experiment: SAR analysis for the identification of selective inhibitors of the two-pore domain potassium channel TASK1(KCNK3):Automated Electrophysiology.; assay type: functional
Sequence of Potassium channel subfamily K member 3 (Rattus norvegicus, UniProt O54912) (O54912 whole entry, the tested form may be a part): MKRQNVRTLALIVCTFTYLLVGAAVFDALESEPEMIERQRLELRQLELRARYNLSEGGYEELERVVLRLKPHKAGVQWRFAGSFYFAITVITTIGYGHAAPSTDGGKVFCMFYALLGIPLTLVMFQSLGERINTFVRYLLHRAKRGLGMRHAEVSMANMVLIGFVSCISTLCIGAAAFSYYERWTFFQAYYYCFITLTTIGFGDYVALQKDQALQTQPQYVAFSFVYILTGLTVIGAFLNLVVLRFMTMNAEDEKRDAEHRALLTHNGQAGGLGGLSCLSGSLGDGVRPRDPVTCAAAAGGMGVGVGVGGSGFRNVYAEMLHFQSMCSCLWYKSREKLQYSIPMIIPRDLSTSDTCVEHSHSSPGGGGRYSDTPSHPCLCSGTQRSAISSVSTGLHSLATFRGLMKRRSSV

[44] = molecular target: T3, Potassium channel subfamily K member 9 (Homo sapiens, UniProt Q9NPC2); experiment: TASK3 (KCNK9) channel inhibitors, thallium flux, SAR follow-up, selectivity assay for TASK1 inhibitor project, cell-based, FluxOR thallium flux, concentration-response (AID 652211); assay type: functional;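 note: potency is for inhibitors of the channel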
T3 sequence (Q9NPC2 whole entry): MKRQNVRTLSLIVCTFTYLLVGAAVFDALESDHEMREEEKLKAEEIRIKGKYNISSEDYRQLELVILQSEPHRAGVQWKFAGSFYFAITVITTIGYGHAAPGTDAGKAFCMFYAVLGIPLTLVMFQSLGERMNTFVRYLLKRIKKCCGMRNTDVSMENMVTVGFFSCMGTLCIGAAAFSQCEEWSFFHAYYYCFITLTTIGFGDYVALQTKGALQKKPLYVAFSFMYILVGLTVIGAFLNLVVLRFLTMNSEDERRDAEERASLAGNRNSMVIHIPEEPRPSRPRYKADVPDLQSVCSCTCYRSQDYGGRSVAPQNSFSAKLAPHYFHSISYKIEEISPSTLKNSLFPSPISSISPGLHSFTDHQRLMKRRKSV

[45] = molecular target: T3, Potassium channel subfamily K member 9; experiment: KCNK9 (TASK3) current inhibition by patch clamp, SAR follow-up, selectivity assay for TASK1 (KCNK3) inhibitor project, cell-based, automated electrophysiology (AID 652210); assay type: functional

Cc1csc(NC(=O)c2oc3ccccc3c2C)n1
EC50 (cells [1]): > 67.6 µM (inactive) | EC50 [2]: > 67.6 µM (inactive)

O=C(c1cc(COc2ccc3ncccc3c2)on1)N1CCCCCC1
IC50 [3]: 1.13 µM (active) | IC50 (HEK293 [4]): 13.2 µM (inactive) | AC50 [5]: 0.703 µM (active) | IC50 (HEK293 [6]): > 20 µM (inactive) | IC50 [7]: 1.86 µM (active) | AC50 (INS1): 5.88 µM (active) | AC50 [8]: 23.4 µM (active) | AC50 [9]: 3.57 µM (active) | IC50 (HEK293 [10]): 5.76 µM (active) | AC50 [11]: 43.6 µM (active) | EC50 (HEK293 [12]): 1.85 µM (active)

COc1ccc(NC(=O)c2cccnc2N2CCCC2)cc1
AC50 [13]: > 30 µM (inactive)

N#Cc1ccc(-c2ccc3c(c2)[C@@H]2[C@@H](CCN2S(=O)(=O)c2cccc(F)c2)[C@H](CO)N3)cc1
AC50 [14]: > 52 µM (inactive) | AC50 [15]: 1.18 µM (active)

COc1ccc(OS(=O)(=O)c2sc(Br)cc2Br)cc1
IC50 (Mu-type opioid receptor): > 50 µM (inactive) | IC50 [16]: > 50 µM (inactive) | IC50 [17]: 16.9 µM (inactive) | IC50 [18]: 35.7 µM (inactive)

CC(C)(C)c1csc(N/N=C/c2ccc(O)cc2)n1
AC50 (cells [19]): > 52 µM (inactive) | AC50 (HeLa): 69.4 µM (active) | AC50 (cells [20]): > 52 µM (inactive)

COc1ccccc1CNC(=O)C[C@@H]1C[C@H]2c3cc(NC(=O)Nc4ccccc4F)ccc3O[C@H]2[C@@H](CO)O1
AC50 [21]: 26.6 µM (active) | AC50 (HEK293 [22]): 26.6 µM (active)

O=[N+]([O-])c1ccc(-c2nc(-c3cccs3)c(-c3cccs3)[nH]2)cc1
EC50 [23]: 19 µM (active) | IC50 [24]: > 69.5 µM (inactive) | EC50 [25]: 11.6 µM (active) | EC50 (Streptokinase A): 20.1 µM (active) | CC50 [26]: 19.5 µM (active) | EC50 [27]: 17.1 µM (active) | EC50 (Streptococcus): 17.3 µM (active)

CC1CCN(S(=O)(=O)c2ccc(C(=O)Nc3nnc(-c4ccco4)o3)cc2)CC1
AC50 [28]: > 52 µM (inactive)

COc1ccc(CSc2nnc(-c3ccccc3)o2)cc1
AC50 [29]: > 52 µM (inactive)

C/C(=N\NC(=O)c1c([N+](=O)[O-])c(C)nn1C)c1ccc(NC(=O)C2CCCC2)cc1
EC50 (BJ [30]): 0.476 µM (active) | EC50 [31]: 0.605 µM (active) | EC50 (BJ [32]): 1.02 µM (active) | AC50 [33]: 12.8 µM (active) | EC50 (BJ [34]): 0.918 µM (inconclusive)

O=C1CN(S(=O)(=O)Cc2ccccc2)C[C@@H]2[C@@H](c3ccc(C#CCC4CCCC4)cc3)[C@@H](CO)N12
AC50 [35]: 18.8 µM (active) | AC50 [36]: 11.3 µM (active) | AC50 [37]: 28.1 µM (active) | AC50 [38]: 4.22 µM (active) | AC50 (Paired box protein Pax-8): 4.58 µM (active)

COc1ccc(C(=O)/C=C2\Sc3ccccc3N2C)cc1
IC50 [39]: > 67.6 µM (inactive) | EC50 [40]: > 67.6 µM (inactive) | IC50 [41]: > 80 µM (inactive)

CCOc1ccccc1NC(=O)c1cccc(NC(=O)c2ccccc2C(F)(F)F)c1
IC50 [42]: 0.03 µM (active) | IC50 [43]: 0.006 µM (active) | IC50 [44]: 0.32 µM (active) | IC50 [45]: 0.52 µM (active)
